One assay relates to Acinetobacter spp. Description: MIC by agar dilution (NCCLS), 322 nosocomial Gram negative isolates, Athens 1998. In kind it is cell-based. As to conditions: Acinetobacter; n = 38 strains. (In agar dilution, organisms are placed on agar that contains the substance at set levels.)
The subject of another assay is Enterobacter spp. The assay is described as above. In kind it is cell-based. As to conditions: Enterobacter, n = 57 isolates; for MIC50: read-out: MIC50; for MIC90: read-out: MIC90.
Another assay has as its system Klebsiella pneumoniae. The description is as above. In kind it is cell-based. As to conditions: Klebsiella pneumoniae; n = 56 isolates.
The subject of the next assay is Proteus mirabilis. The assay is described as above. It counts as cell-based. As to conditions: Proteus mirabilis; n = 57 isolates.
In another assay the test system is Pseudomonas aeruginosa. The description is as above. It counts as cell-based. As to conditions: n = 57 isolates.
The next assay relates to Escherichia coli. Described as above. In kind it is cell-based. As to conditions: n = 57 isolates.
Assay [1] deals with Aeromonas spp. Description: MIC by agar dilution (NCCLS M7-A4), 288 enteropathogenic isolates, eight quinolones. As to conditions: Aeromonas spp. (n = 16). In kind it is cell-based.
Assay [2] has as its system Shigella spp. Kind of assay: MIC by agar dilution (NCCLS M7-A4), 288 enteropathogenic isolates, gemifloxacin and 15 other antimicrobials. As to conditions: Shigella spp. N= 21. In kind it is cell-based. A digest of the protocol: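 Agar dilution with ~10^4 cfu/spot inoculum; plates incubated aerobically at 35 °C for 24 h, except C. jejuni, held microaerophilically for 48 h. MIC taken as lowest antibiotic concentration with no visible growth.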

The subject of assay [3] is Hafnia alvei. Kind of assay: MIC by agar dilution (NCCLS M7-A4), 288 enteropathogenic isolates, eight quinolones. It counts as cell-based. As to conditions: Hafnia alvei (n = 32).
Assay [4] concerns Shigella spp. Described as above. In kind it is cell-based. As to conditions: Shigella spp. (n = 21).
The subject of assay [5] is Hafnia alvei. Description: MIC by agar dilution (NCCLS M7-A4), 288 enteropathogenic isolates, gemifloxacin and 15 other antimicrobials. It counts as cell-based. As to conditions: Hafnia alvei N= 32.
In assay [6] the test system is Yersinia enterocolitica. Description: MIC by agar dilution (NCCLS M7-A4), 288 enteropathogenic isolates, eight quinolones. It counts as cell-based. As to conditions: Yersinia enterocolitica (n = 22).
Assay [7] relates to Salmonella spp. Kind of assay: MIC by agar dilution (NCCLS M7-A4), 288 enteropathogenic isolates, gemifloxacin and 15 other antimicrobials. In kind it is cell-based.
For assay [8], the system named is Salmonella spp. Description: MIC by agar dilution (NCCLS M7-A4), 288 enteropathogenic isolates, eight quinolones. In kind it is cell-based. As to conditions: for MIC: ciprofloxacin MIC ≥[…], read-out: MIC.
In assay [9] the test system is Aeromonas spp. Description: MIC by agar dilution (NCCLS M7-A4), 288 enteropathogenic isolates, gemifloxacin and 15 other antimicrobials. It counts as cell-based. As to conditions: Aeromonas spp. N= 16.
Assay [10] concerns Campylobacter jejuni. The description is as above. As to conditions: Campylobacter jejuni.
For assay [11], the system named is Campylobacter jejuni. Description: MIC by agar dilution (NCCLS M7-A4), 5% sheep blood, microaerophilic 48 h. It counts as cell-based. As to conditions: Campylobacter jejuni (n=91).
The subject of assay [12] is Yersinia enterocolitica. Kind of assay: MIC by agar dilution (NCCLS M7-A4), 288 enteropathogenic isolates, gemifloxacin and 15 other antimicrobials. In kind it is cell-based. As to conditions: Yersinia enterocolitica N= 22.
[13] abbreviates: 24 h, read-out: MIC (mg/L) Range.

≈ marks a conversion by molar mass, not a printed value. Read-outs that look alike come from different tables or passages of the source. Some results are limits rather than exact numbers.

For orientation: MIC50 means the lowest concentration that inhibits either 50% of growth or 50% of the strains tested, depending on the study. One may read the MIC90 as an inhibitory concentration at the 90% level, which refers to growth in some studies and to a panel of isolates in others. For `CO/N=C(\C(=O)N[C@@H]1C(=O)N2C(C(=O)[O-])=C(C[N+]3(C)CCCC3)CS[C@H]12)c1csc(N)n1` [Cefepime], the MIC50 in the assay on Acinetobacter spp. came out at 16 µg/mL (≈ 33.3 µM); in the assay with Enterobacter spp., 0.125 µg/mL (≈ 0.26 µM); with Klebsiella pneumoniae, 0.06 µg/mL (≈ 0.125 µM); with Proteus mirabilis it was 0.125 µg/mL (≈ 0.26 µM); with Pseudomonas aeruginosa, 8 µg/mL (≈ 16.6 µM). In addition, the MIC90 in the assay with Acinetobacter spp. is 64 µg/mL (≈ 133 µM); in the assay on Enterobacter spp., 16 µg/mL (≈ 33.3 µM); in the assay with Klebsiella pneumoniae, 8 µg/mL (≈ 16.6 µM); against Proteus mirabilis, 8 µg/mL (≈ 16.6 µM); with Pseudomonas aeruginosa, over 64 µg/mL.
Turning to `CO[C@@]1(NC(=O)Cc2cccs2)C(=O)N2C(C(=O)O)=C(COC(N)=O)CS[C@@H]21` [Cefoxitin], the MIC50 with Acinetobacter spp. is over 64 µg/mL; with Enterobacter spp. it was over 64 µg/mL; in the assay with Klebsiella pneumoniae, 4 µg/mL (≈ 9.36 µM); in the assay with Escherichia coli (Escherichia coli), 4 µg/mL (≈ 9.36 µM); against Proteus mirabilis it was 4 µg/mL (≈ 9.36 µM). Further, the MIC90 in the assay with Acinetobacter spp. is over 64 µg/mL; with Enterobacter spp. it was over 64 µg/mL; in the assay on Klebsiella pneumoniae, 16 µg/mL (≈ 37.4 µM); in the assay on Escherichia coli (Escherichia coli) it was 16 µg/mL (≈ 37.4 µM); against Proteus mirabilis, 16 µg/mL (≈ 37.4 µM). For the same compound, the “MIC Range” value against Escherichia coli was 2 to 32 µg/mL.
For the compound `CCn1cc(C(=O)O)c(=O)c2cc(F)c(N3CCNCC3)cc21` [Norfloxacin, norfloxacin], the “% Susceptible” value in the assay on Aeromonas spp. [1] was determined as 100%; in the assay on Hafnia alvei [3], 100%; in the assay on Shigella spp. [4] it was 100%; in the assay with Yersinia enterocolitica [6], 100%; in the assay with Salmonella spp. [8] (Salmonella spp. (n = 106)), 100%; in the assay with Campylobacter jejuni [11], 31.86%. Further, the MIC50 in the assay with Aeromonas spp. [1] was at most 0.015 µg/mL; in the assay on Hafnia alvei [3], 0.03 µg/mL (≈ 0.0939 µM); with Shigella spp. [4], 0.06 µg/mL (≈ 0.188 µM); against Yersinia enterocolitica [6], 0.06 µg/mL (≈ 0.188 µM); against Salmonella spp. [8] (Salmonella spp. (n = 106)) it was 0.06 µg/mL (≈ 0.188 µM); in the assay on Campylobacter jejuni [11], 128 µg/mL (≈ 401 µM). The MIC90 against Aeromonas spp. [1] is 0.03 µg/mL (≈ 0.0939 µM); against Hafnia alvei [3], 0.03 µg/mL (≈ 0.0939 µM); in the assay on Shigella spp. [4] it was 0.06 µg/mL (≈ 0.188 µM); against Yersinia enterocolitica [6] it was 0.06 µg/mL (≈ 0.188 µM); against Salmonella spp. [8] (Salmonella spp. (n = 106)), 0.5 µg/mL (≈ 1.57 µM); in the assay with Campylobacter jejuni [11], over 128 µg/mL. In addition, the “MIC Range” value in the assay with Aeromonas spp. [1] is at most 0.015 to 0.12 µg/mL; in the assay on Hafnia alvei [3], at most 0.015 to 0.03 µg/mL; in the assay on Shigella spp. [4], 0.03 to 0.06 µg/mL; with Yersinia enterocolitica [6] it was 0.06 to 0.5 µg/mL; with Salmonella spp. [8] (Salmonella spp. (n = 106)), 0.06 to 4 µg/mL. Further, the MIC in the assay with Shigella spp. [2] (setting [13]) was 0.03 to 0.06 mg/L (≈ 0.0939 to 0.188 µM); in the assay on Shigella spp. [2] (read-out: MIC (mg/L) 50%), 0.06 mg/L (≈ 0.188 µM); with Shigella spp. [2] (read-out: MIC (mg/L) 90%), 0.06 mg/L (≈ 0.188 µM); with Hafnia alvei [5] (setting [13]) it was 0.015 to 0.03 mg/L (≈ 0.047 to 0.0939 µM); in the assay with Hafnia alvei [5] (read-out: MIC (mg/L) 50%), 0.03 mg/L (≈ 0.0939 µM); in the assay with Hafnia alvei [5] (read-out: MIC (mg/L) 90%), 0.03 mg/L (≈ 0.0939 µM). For the same compound, the MIC was 4 mg/L (≈ 12.5 µM) in the assay on Salmonella spp. [7] (S. hadar(2), isolates with MICs for ciprofloxacin ≥[…], read-out: MIC); 2 mg/L (≈ 6.26 µM) in the assay on Salmonella spp. [7] (S. newport(1), isolate with MIC for ciprofloxacin ≥[…], read-out: MIC); 0.5 mg/L (≈ 1.57 µM) in the assay with Salmonella spp. [7] (S. virchow(2), isolates with MICs for ciprofloxacin ≥[…], read-out: MIC); 4 mg/L (≈ 12.5 µM) in the assay with Salmonella spp. [7] (Salmonella, S. tshiongwe(1), isolate with MIC for ciprofloxacin ≥[…], read-out: MIC); 0.06 mg/L (≈ 0.188 µM) in the assay on Salmonella spp. [7] (Salmonella, read-out: MIC (mg/L) 50%, Salmonella spp. N= 106); 0.5 mg/L (≈ 1.57 µM) in the assay on Salmonella spp. [7] (Salmonella, read-out: MIC (mg/L) 90%, Salmonella spp. N= 106). The MIC in the assay on Salmonella spp. [8] (S. hadar (n = 2)) is 4 µg/mL (≈ 12.5 µM); in the assay with Salmonella spp. [8] (S. newport (n = 1)) it was 2 µg/mL (≈ 6.26 µM); in the assay on Salmonella spp. [8] (S. virchow (n = 2)), 0.5 µg/mL (≈ 1.57 µM); with Salmonella spp. [8] (Salmonella, S. tshiongwe (n = 1)), 4 µg/mL (≈ 12.5 µM); in the assay on Aeromonas spp. [9] (read-out: MIC (mg/L) 50%) it was at most 0.015 mg/L; in the assay on Aeromonas spp. [9] (read-out: MIC (mg/L) 90%) it was 0.03 mg/L (≈ 0.0939 µM). Further, the MIC was 128 mg/L (≈ 401 µM) in the assay on Campylobacter jejuni [10] (read-out: MIC (mg/L) 50%); over 128 mg/L with Campylobacter jejuni [10] (read-out: MIC (mg/L) 90%); 0.06 to 0.5 mg/L (≈ 0.188 to 1.57 µM) in the assay on Yersinia enterocolitica [12] (setting [13]); 0.06 mg/L (≈ 0.188 µM) in the assay with Yersinia enterocolitica [12] (read-out: MIC (mg/L) 50%); 0.06 mg/L (≈ 0.188 µM) in the assay with Yersinia enterocolitica [12] (read-out: MIC (mg/L) 90%). The “MIC (mg/L) Range” value in the assay on Salmonella spp. [7] (Salmonella spp. N= 106) is 0.06 to 4 mg/L; in the assay on Aeromonas spp. [9], at most 0.015 to 0.12 mg/L.

(Values after EP1561465A2, “Methods of use of fluoroquinolone compounds against bacteria” (LG Life Sciences, Ltd., priority 1999, dated 2001).)
